Measured values published in ChEMBL document CHEMBL3877252, “Fluorescein hydrazones: A series of novel non-intercalative topoisomerase IIα catalytic inhibitors induce G1 arrest and apoptosis in breast and colon cancer cells” (Eur J Med Chem, 2017).
Where a name gives a salt, the structure may show the parent alone.

How the values were obtained:
[1] = target: T1, DNA topoisomerase 1 (Homo sapiens) (UniProt P11387); experiment: Inhibition of human topoisomerase-1 assessed as inhibition of relaxation of supercoiled pBR322 plasmid DNA at 100 uM measured after 1 hr by ethidium bromide staining based agarose gel electrophoresis relative to control
T1 sequence (whole entry): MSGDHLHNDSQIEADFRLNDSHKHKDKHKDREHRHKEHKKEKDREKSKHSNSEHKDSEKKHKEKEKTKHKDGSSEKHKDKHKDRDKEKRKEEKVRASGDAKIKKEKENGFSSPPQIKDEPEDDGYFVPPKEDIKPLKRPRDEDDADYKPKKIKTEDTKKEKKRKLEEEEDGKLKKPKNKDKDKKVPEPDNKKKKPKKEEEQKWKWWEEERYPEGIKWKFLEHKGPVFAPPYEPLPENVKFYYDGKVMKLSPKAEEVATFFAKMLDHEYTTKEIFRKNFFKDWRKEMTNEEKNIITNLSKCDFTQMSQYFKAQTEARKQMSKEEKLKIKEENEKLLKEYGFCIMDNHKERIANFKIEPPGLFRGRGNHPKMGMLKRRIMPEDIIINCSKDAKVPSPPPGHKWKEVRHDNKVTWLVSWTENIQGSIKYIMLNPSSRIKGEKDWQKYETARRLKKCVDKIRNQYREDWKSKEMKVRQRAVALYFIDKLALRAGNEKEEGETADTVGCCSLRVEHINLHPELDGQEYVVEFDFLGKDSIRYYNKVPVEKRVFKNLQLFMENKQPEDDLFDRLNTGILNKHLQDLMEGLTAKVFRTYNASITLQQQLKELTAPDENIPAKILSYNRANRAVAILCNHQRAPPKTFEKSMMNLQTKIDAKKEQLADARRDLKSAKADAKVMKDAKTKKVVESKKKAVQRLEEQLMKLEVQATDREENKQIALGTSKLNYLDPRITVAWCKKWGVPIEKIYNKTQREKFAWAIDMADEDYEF

[2] = target: DNA topoisomerase 2-alpha (Homo sapiens) (UniProt P11388); experiment: Inhibition of human topoisomerase-2 alpha assessed as inhibition of relaxation of supercoiled pBR322 plasmid DNA at 100 uM measured after 1 hr by ethidium bromide staining based agarose gel electrophoresis relative to control
[3] = Antiproliferative activity against human T47D cells measured after 72 hrs by CCK8 assay; assay type: functional, cell-based
[4] = Antiproliferative activity against human DU145 cells measured after 72 hrs by CCK8 assay; assay type: functional, cell-based; conditions: DU-145, 72 h
[5] = Antiproliferative activity against human HCT15 cells measured after 72 hrs by CCK8 assay; assay type: functional, cell-based; conditions: HCT-15, 72 h
[6] = target: T1, DNA topoisomerase 1 (Homo sapiens); experiment: Inhibition of human topoisomerase-1 assessed as inhibition of relaxation of supercoiled pBR322 plasmid DNA at 20 uM measured after 1 hr by ethidium bromide staining based agarose gel electrophoresis relative to control
[7] = Antiproliferative activity against human MCF7 cells measured after 72 hrs by CCK8 assay; assay type: functional, cell-based; conditions: MCF7, 72 h
[8] = target: DNA topoisomerase 2-alpha (Homo sapiens) (UniProt P11388); experiment: Inhibition of human topoisomerase-2 alpha assessed as inhibition of relaxation of supercoiled pBR322 plasmid DNA at 20 uM measured after 1 hr by ethidium bromide staining based agarose gel electrophoresis relative to control

Chain of DNA topoisomerase 2-alpha (Homo sapiens) (P11388 whole entry): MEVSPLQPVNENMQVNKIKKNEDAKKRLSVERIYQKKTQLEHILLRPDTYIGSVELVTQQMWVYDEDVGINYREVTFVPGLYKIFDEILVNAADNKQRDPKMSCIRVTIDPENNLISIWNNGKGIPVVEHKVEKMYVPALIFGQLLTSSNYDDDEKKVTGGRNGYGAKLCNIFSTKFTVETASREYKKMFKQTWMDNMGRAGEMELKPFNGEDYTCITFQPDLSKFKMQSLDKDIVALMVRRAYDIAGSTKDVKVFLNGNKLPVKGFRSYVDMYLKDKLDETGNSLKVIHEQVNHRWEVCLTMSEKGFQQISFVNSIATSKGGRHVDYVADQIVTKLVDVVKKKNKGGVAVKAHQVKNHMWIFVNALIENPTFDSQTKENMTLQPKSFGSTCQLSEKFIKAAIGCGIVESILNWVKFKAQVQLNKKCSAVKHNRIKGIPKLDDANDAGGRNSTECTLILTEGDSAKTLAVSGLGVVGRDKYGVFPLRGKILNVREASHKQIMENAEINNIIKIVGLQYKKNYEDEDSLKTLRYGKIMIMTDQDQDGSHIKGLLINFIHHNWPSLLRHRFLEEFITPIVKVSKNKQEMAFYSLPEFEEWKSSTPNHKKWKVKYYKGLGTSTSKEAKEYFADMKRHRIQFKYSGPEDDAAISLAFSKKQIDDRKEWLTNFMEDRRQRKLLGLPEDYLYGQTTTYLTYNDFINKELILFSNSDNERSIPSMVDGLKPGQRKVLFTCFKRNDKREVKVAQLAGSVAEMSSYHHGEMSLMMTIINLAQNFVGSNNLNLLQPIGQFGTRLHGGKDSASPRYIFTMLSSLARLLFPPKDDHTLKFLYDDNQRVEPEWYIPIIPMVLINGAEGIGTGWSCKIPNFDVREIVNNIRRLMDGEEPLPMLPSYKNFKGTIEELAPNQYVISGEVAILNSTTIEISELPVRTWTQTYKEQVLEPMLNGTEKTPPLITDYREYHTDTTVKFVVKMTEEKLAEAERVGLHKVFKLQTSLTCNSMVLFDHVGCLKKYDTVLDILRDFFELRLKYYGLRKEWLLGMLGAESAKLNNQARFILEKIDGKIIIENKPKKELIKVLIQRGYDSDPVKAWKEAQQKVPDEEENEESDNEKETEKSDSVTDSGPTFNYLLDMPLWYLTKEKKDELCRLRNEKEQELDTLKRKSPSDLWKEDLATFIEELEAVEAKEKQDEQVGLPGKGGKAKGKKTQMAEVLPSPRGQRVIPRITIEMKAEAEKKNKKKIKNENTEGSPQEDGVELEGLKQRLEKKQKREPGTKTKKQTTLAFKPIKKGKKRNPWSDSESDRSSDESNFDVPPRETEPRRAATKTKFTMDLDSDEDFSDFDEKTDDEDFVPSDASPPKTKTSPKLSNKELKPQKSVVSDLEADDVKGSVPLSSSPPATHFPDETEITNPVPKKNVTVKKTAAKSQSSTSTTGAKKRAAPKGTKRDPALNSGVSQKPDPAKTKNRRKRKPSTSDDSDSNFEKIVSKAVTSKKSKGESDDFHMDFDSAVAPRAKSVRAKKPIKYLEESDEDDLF

Structure (SMILES): CCOc1ccc2c(c1)Oc1cc(OC(=O)c3ccccc3OC)ccc1C21c2ccccc2C(=O)N1/N=C/c1ccccc1[N+](=O)[O-] (configuration not stated)
- inhibition [1]: 19%
- inhibition [2]: 6.2%

Structure (SMILES): COc1cccc2c1C(=O)c1c(O)c3c(c(O)c1C2=O)C[C@@](O)(C(=O)CO)C[C@@H]3O[C@H]1C[C@H](N)[C@H](O)[C@H](C)O1 [DOXORUBICIN HYDROCHLORIDE]
- IC50 [3]: 1.5 µM
- IC50 [4]: 1.59 µM
- IC50 [5]: 0.74 µM

Structure (SMILES): CCOc1ccc2c(c1)Oc1cc(OC(=O)c3ccccc3[N+](=O)[O-])ccc1C21c2ccccc2C(=O)N1/N=C/c1cccc(OC(=O)c2ccccc2[N+](=O)[O-])c1 (configuration not stated)
- inhibition [1]: 0%
- inhibition [2]: 6.6%

Structure (SMILES): CCOc1ccc2c(c1)Oc1cc(OC(=O)c3ccccc3[N+](=O)[O-])ccc1C21c2ccccc2C(=O)N1/N=C/c1ccc(Cl)cc1 (configuration not stated)
- inhibition [1]: 12.9%
- inhibition [2]: 10.8%

Structure (SMILES): CCOc1ccc2c(c1)Oc1cc(OC(=O)c3ccccc3)ccc1C21c2ccccc2C(=O)N1/N=C/c1ccccc1[N+](=O)[O-] (configuration not stated)
- inhibition [1]: 55.4%
- inhibition [2]: 6.1%
- inhibition [6]: 0%

Structure (SMILES): CCOc1ccc2c(c1)Oc1cc(OC(=O)c3ccccc3OC)ccc1C21c2ccccc2C(=O)N1/N=C/c1cccc(OC(=O)c2ccccc2OC)c1 (configuration not stated)
- inhibition [1]: 0%
- inhibition [2]: 2.8%

Structure (SMILES): CCOc1ccc2c(c1)Oc1cc(OC(=O)c3ccccc3)ccc1C21c2ccccc2C(=O)N1/N=C/c1ccc(Cl)cc1 (configuration not stated)
- inhibition [1]: 9.4%
- inhibition [2]: 7%

Structure (SMILES): CCOc1ccc2c(c1)Oc1cc(OC(=O)c3ccccc3)ccc1C21c2ccccc2C(=O)N1/N=C/c1ccc(OC)cc1 (configuration not stated)
- inhibition [1]: 44.6%
- inhibition [2]: 5.4%
- inhibition [6]: 9.8%

Structure (SMILES): CCOc1ccc2c(c1)Oc1cc(OC(=O)c3ccccc3OC)ccc1C21c2ccccc2C(=O)N1/N=C/c1ccc(OC)c(OC(=O)c2ccccc2OC)c1 (configuration not stated)
- IC50 [3]: 23.6 µM
- IC50 [4]: > 50 µM
- inhibition [1]: 73.1%
- IC50 [7]: > 50 µM
- inhibition [2]: 4.9%
- inhibition [6]: 13.9%
- IC50 [5]: > 50 µM

Structure (SMILES): CC[C@@]1(O)C(=O)OCc2c1cc1n(c2=O)Cc2cc3ccccc3nc2-1 [CAMPTOTHECIN]
- IC50 [3]: 0.59 µM
- IC50 [4]: 0.38 µM
- IC50 [7]: 4.54 µM
- IC50 [5]: 0.35 µM

Structure (SMILES): CCOc1ccc2c(c1)Oc1cc(O)ccc1C21c2ccccc2C(=O)N1/N=C/c1ccc(OC)cc1 (configuration not stated)
- inhibition [8]: 3.6%
- inhibition [1]: 0.8%
- inhibition [2]: 65%

Structure (SMILES): CCOc1ccc2c(c1)Oc1cc(OC(=O)c3ccccc3[N+](=O)[O-])ccc1C21c2ccccc2C(=O)N1/N=C/c1ccccc1OC (configuration not stated)
- inhibition [1]: 79.3%
- inhibition [2]: 9%
- inhibition [6]: 34.4%

Structure (SMILES): CCOc1ccc2c(c1)Oc1cc(OC(=O)c3ccccc3)ccc1C21c2ccccc2C(=O)N1/N=C/c1ccc(OC(=O)c2ccccc2)cc1 (configuration not stated)
- inhibition [1]: 75.3%
- inhibition [2]: 7.9%
- inhibition [6]: 9.2%

Structure (SMILES): CCOc1ccc2c(c1)Oc1cc(OC(=O)c3ccccc3[N+](=O)[O-])ccc1C21c2ccccc2C(=O)N1/N=C/c1ccc(OC(=O)c2ccccc2[N+](=O)[O-])cc1 (configuration not stated)
- inhibition [1]: 22.7%
- inhibition [2]: 13.2%

Structure (SMILES): CCOc1ccc2c(c1)Oc1cc(OC(=O)c3ccccc3)ccc1C21c2ccccc2C(=O)N1/N=C/c1ccc(OC)c(OC(=O)c2ccccc2)c1 (configuration not stated)
- inhibition [1]: 89.4%
- inhibition [2]: 2.7%
- inhibition [6]: 72%

Structure (SMILES): CCOc1ccc2c(c1)Oc1cc(OC(=O)c3ccccc3Cl)ccc1C21c2ccccc2C(=O)N1/N=C/c1ccc(OC(=O)c2ccccc2Cl)cc1 (configuration not stated)
- inhibition [1]: 30.1%
- inhibition [2]: 13.1%
- inhibition [6]: 24.6%

Structure (SMILES): CCOc1ccc2c(c1)Oc1cc(OC(=O)c3ccccc3[N+](=O)[O-])ccc1C21c2ccccc2C(=O)N1/N=C/c1ccccc1OC(=O)c1ccccc1[N+](=O)[O-] (configuration not stated)
- IC50 [3]: 5.45 µM
- IC50 [4]: > 50 µM
- inhibition [1]: 0%
- IC50 [7]: > 50 µM
- inhibition [2]: 25.7%
- IC50 [5]: > 50 µM

Structure (SMILES): CCOc1ccc2c(c1)Oc1cc(OC(=O)c3ccccc3OC)ccc1C21c2ccccc2C(=O)N1/N=C/c1ccccc1OC (configuration not stated)
- IC50 [3]: 21.4 µM
- IC50 [4]: > 50 µM
- inhibition [1]: 74%
- IC50 [7]: > 50 µM
- inhibition [2]: 8.1%
- inhibition [6]: 6.8%
- IC50 [5]: 1.92 µM

Structure (SMILES): CCOc1ccc2c(c1)Oc1cc(OC(=O)c3ccccc3Cl)ccc1C21c2ccccc2C(=O)N1/N=C/c1cccc(OC(=O)c2ccccc2Cl)c1 (configuration not stated)
- inhibition [1]: 0%
- inhibition [2]: 7%

Structure (SMILES): CCOc1ccc2c(c1)Oc1cc(OC(=O)c3ccccc3)ccc1C21c2ccccc2C(=O)N1/N=C/c1ccc(Cl)cc1Cl (configuration not stated)
- inhibition [1]: 99.9%
- inhibition [2]: 25.3%
- inhibition [6]: 2.5%

Structure (SMILES): CCOc1ccc2c(c1)Oc1cc(OC(=O)c3ccccc3OC)ccc1C21c2ccccc2C(=O)N1/N=C/c1ccc(Cl)cc1 (configuration not stated)
- inhibition [1]: 4.2%
- inhibition [2]: 6.5%

Structure (SMILES): CCOc1ccc2c(c1)Oc1cc(OC(=O)c3ccccc3Cl)ccc1C21c2ccccc2C(=O)N1/N=C/c1ccccc1OC (configuration not stated)
- IC50 [3]: > 50 µM
- IC50 [4]: 6.3 µM
- inhibition [1]: 55.2%
- IC50 [7]: > 50 µM
- inhibition [2]: 7.8%
- inhibition [6]: 30%
- IC50 [5]: > 50 µM

Structure (SMILES): CCOc1ccc2c(c1)Oc1cc(OC(=O)c3ccccc3OC)ccc1C21c2ccccc2C(=O)N1/N=C/c1ccc(OC)cc1 (configuration not stated)
- inhibition [1]: 35.6%
- inhibition [2]: 4.8%
- inhibition [6]: 17.3%

Structure (SMILES): CCOc1ccc2c(c1)Oc1cc(OC(=O)c3ccccc3OC)ccc1C21c2ccccc2C(=O)N1/N=C/c1ccccc1OC(=O)c1ccccc1OC (configuration not stated)
- IC50 [3]: 6.22 µM
- IC50 [4]: > 50 µM
- inhibition [1]: 0%
- IC50 [7]: > 50 µM
- inhibition [2]: 10.3%
- IC50 [5]: 1.56 µM

Structure (SMILES): CCOc1ccc2c(c1)Oc1cc(OC(=O)c3ccccc3Cl)ccc1C21c2ccccc2C(=O)N1/N=C/c1ccccc1[N+](=O)[O-] (configuration not stated)
- IC50 [3]: 7.75 µM
- IC50 [4]: > 50 µM
- inhibition [1]: 39.8%
- IC50 [7]: > 50 µM
- inhibition [2]: 5.4%
- inhibition [6]: 0%
- IC50 [5]: 47 µM

Structure (SMILES): CCOc1ccc2c(c1)Oc1cc(OC(=O)c3ccccc3Cl)ccc1C21c2ccccc2C(=O)N1/N=C/c1ccc(Cl)cc1Cl (configuration not stated)
- inhibition [1]: 14.4%
- inhibition [2]: 8.5%

Structure (SMILES): CCOc1ccc2c(c1)Oc1cc(OC(=O)c3ccccc3)ccc1C21c2ccccc2C(=O)N1/N=C/c1ccccc1OC (configuration not stated)
- inhibition [1]: 81.3%
- inhibition [2]: 6.9%
- inhibition [6]: 48.1%

Structure (SMILES): CCOc1ccc2c(c1)Oc1cc(OC(=O)c3ccccc3[N+](=O)[O-])ccc1C21c2ccccc2C(=O)N1/N=C/c1ccc(OC)c(OC(=O)c2ccccc2[N+](=O)[O-])c1 (configuration not stated)
- inhibition [1]: 87.2%
- inhibition [2]: 3.9%
- inhibition [6]: 15.8%

Structure (SMILES): CCOc1ccc2c(c1)Oc1cc(OC(=O)c3ccccc3OC)ccc1C21c2ccccc2C(=O)N1/N=C/c1ccc(OC(=O)c2ccccc2OC)cc1 (configuration not stated)
- IC50 [3]: 44.8 µM
- IC50 [4]: > 50 µM
- inhibition [1]: 0%
- IC50 [7]: > 50 µM
- inhibition [2]: 11.4%
- IC50 [5]: > 50 µM

Structure (SMILES): CCOc1ccc2c(c1)Oc1cc(OC(=O)c3ccccc3Cl)ccc1C21c2ccccc2C(=O)N1/N=C/c1ccc(OC)c(OC(=O)c2ccccc2Cl)c1 (configuration not stated)
- inhibition [1]: 86.6%
- inhibition [2]: 4.8%
- inhibition [6]: 1.7%

Structure (SMILES): CCOc1ccc2c(c1)Oc1cc(OC(=O)c3ccccc3Cl)ccc1C21c2ccccc2C(=O)N1/N=C/c1ccccc1OC(=O)c1ccccc1Cl (configuration not stated)
- inhibition [1]: 0%
- inhibition [2]: 11.1%

Structure (SMILES): CCOc1ccc2c(c1)Oc1cc(OC(=O)c3ccccc3OC)ccc1C21c2ccccc2C(=O)N1/N=C/c1ccc(Cl)cc1Cl (configuration not stated)
- inhibition [1]: 69.2%
- inhibition [2]: 25%
- inhibition [6]: 10%

Structure (SMILES): CCOc1ccc2c(c1)Oc1cc(OC(=O)c3ccccc3[N+](=O)[O-])ccc1C21c2ccccc2C(=O)N1/N=C/c1ccccc1[N+](=O)[O-] (configuration not stated)
- inhibition [1]: 16.9%
- inhibition [2]: 7.5%

Structure (SMILES): CCOc1ccc2c(c1)Oc1cc(OC(=O)c3ccccc3)ccc1C21c2ccccc2C(=O)N1/N=C/c1ccccc1OC(=O)c1ccccc1 (configuration not stated)
- IC50 [3]: > 50 µM
- IC50 [4]: > 50 µM
- inhibition [1]: 73.2%
- IC50 [7]: > 50 µM
- inhibition [2]: 21.5%
- inhibition [6]: 55.9%
- IC50 [5]: 8.29 µM

Structure (SMILES): CCOc1ccc2c(c1)Oc1cc(OC(=O)c3ccccc3[N+](=O)[O-])ccc1C21c2ccccc2C(=O)N1/N=C/c1ccc(OC)cc1 (configuration not stated)
- inhibition [1]: 54.6%
- inhibition [2]: 6%
- inhibition [6]: 3.5%

Structure (SMILES): CCOc1ccc2c(c1)Oc1cc(OC(=O)c3ccccc3Cl)ccc1C21c2ccccc2C(=O)N1/N=C/c1ccc(OC)cc1 (configuration not stated)
- inhibition [1]: 3.3%
- inhibition [2]: 5.6%

Structure (SMILES): CCOc1ccc2c(c1)Oc1cc(OC(=O)c3ccccc3)ccc1C21c2ccccc2C(=O)N1/N=C/c1cccc(OC(=O)c2ccccc2)c1 (configuration not stated)
- IC50 [3]: > 50 µM
- IC50 [4]: > 50 µM
- inhibition [1]: 0%
- IC50 [7]: > 50 µM
- inhibition [2]: 6.7%
- IC50 [5]: 28.9 µM
